Read-outs that look alike come from different tables or passages of the source.
Molecular target: T1, cloned human MC4R (Homo sapiens, UniProt P32245)
T1 construct: made in house; host or cells: Hi5 insect cells (baculovirus infection); membrane preparation
Experiment: Membrane binding assay: competitive inhibition of [125I]NDP-α-MSH binding
Settings: for IC50: read-out: MC4R IC50; for inhibition at 10 µM: read-out: Displacement Rate (%) (at 10 μM)
Method: Hi5 cells are infected using the following protocol: Cells at a density of 1×10^6 cells/mL are spun down at 1000 rpm (Beckman GS-6KR centrifuge) for 10 minutes. Cells are resuspended in 10% of their original volume in a sterile 50 mL conical centrifuge tube wrapped with aluminum foil. Virus is added at a Multiplicity of Infection (MOI) of 3 and incubated for 1 hour at room temperature with gentle shaking. […] Cells are spun down in 50 mL conical centrifuge tubes at 1000 rpm for 10 minutes. Each of the resulting pellets are resuspended in 10 mL of cold (4° C.) membrane buffer (25 mM HEPES, pH 7.4, 140 mM NaCl, 1.2 mM MgCl2, 2.5 mM CaCl2, 10 μG/mL Aprotinin, 10 μG/mL Leupeptin) and Dounce homogenized using 10-12 strokes. […] The resulting pellet is resuspended in cold membrane buffer in a total of ¼ of the original volume by vortexing and aspiration using a syringe and 27 gauge needle. Protein content is determined (Bradford, Bio-Rad Protein Assay). Membranes are aliquoted in microcentrifuge tubes and quick frozen in liquid nitrogen. Store at −80° C. until use. The membrane binding buffer is composed of 25 mM HEPES, pH 7.4, 140 mM NaCl, 1.2 mM MgCl2, 2.5 mM CaCl2, 0.1% BSA. […] The mixture is filtered with Brandel Microplate 96 filter apparatus using 96-well GF/B filter presoaked in 1-% polyethyleneimine (Sigma). The filter is washed (4 times with a total of 1 mL per well) with cold wash buffer consisting of 20 mM HEPES, pH 7.4, 5 mM MgCl2. […] 100 μl of Wallac Optiphase Supermix scintillation fluid is added to each well. The top is sealed and the plates are shaken to insure that the filters are thoroughly soaked with fluid. […] Dose-response curves are fitted by […] analyses and IC50 values are calculated using ExcelFit.

[1] = at 10 μM, [125I]NDP-α-MSH displacement

T1 sequence (P32245 whole entry): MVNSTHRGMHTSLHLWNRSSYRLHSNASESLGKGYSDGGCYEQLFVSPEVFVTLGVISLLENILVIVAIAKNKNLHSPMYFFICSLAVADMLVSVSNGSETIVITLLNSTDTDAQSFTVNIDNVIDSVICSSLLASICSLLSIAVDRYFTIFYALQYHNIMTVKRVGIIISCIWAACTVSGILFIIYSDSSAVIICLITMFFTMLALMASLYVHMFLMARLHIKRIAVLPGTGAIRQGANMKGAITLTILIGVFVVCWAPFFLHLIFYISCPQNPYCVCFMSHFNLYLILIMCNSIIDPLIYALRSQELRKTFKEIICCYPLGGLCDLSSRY

| Structure (SMILES) | Displacement Rate (%) (at 10 μM) [1] | IC50 [nM] | inhibition at 10 µM [1] [%] | inhibition at 10 µM [%] |
| --- | --- | --- | --- | --- |
| COc1ccc(OC)c(-c2ccc(C[C@H](N)C(=O)N3CCN(Cc4cccc(Cl)c4Cl)CC3)cc2)c1 [Example 320] | +++ (+++ = 91-100) | 1500 to 3000 | – | – |
| COc1cccc(CC(C)N2CCCN(C(=O)[C@@H](N)Cc3ccc(OCc4ccccc4)cc3)CC2)c1 (some centres unmarked) [Example 63] | – | > 3000 | 35 to 70 | – |
| CCCCCOc1ccc(CN2CCN(C(=O)[C@@H](N)Cc3ccc(OCc4ccccc4)cc3)CC2)cc1 [Example 99] | – | < 1500 | 91 to 100 | – |
| COc1cc(OC)c(CN2CCN(C(=O)[C@@H](N)Cc3ccc(OCc4ccccc4)cc3)CC2)cc1Br [Example 130] | – | > 3000 | 35 to 70 | – |
| N[C@@H](Cc1ccc(OCc2ccccc2)cc1)C(=O)N1CCN(Cc2cccc3ccccc23)CC1 [Example 127] | – | – | 71 to 90 | – |
| N[C@@H](Cc1ccc(-c2ccc(Cl)cc2Cl)cc1)C(=O)N1CCN(Cc2cccc(Cl)c2Cl)CC1 [Example 307] | – | < 1500 | 91 to 100 | – |
| N[C@@H](Cc1ccc(-c2ccc(C(F)(F)F)cc2)cc1)C(=O)N1CCN(Cc2cccc(Cl)c2Cl)CC1 [Example 304] | – | < 1500 | 91 to 100 | – |
| N[C@@H](Cc1ccc(OCc2cccc(F)c2)cc1)C(=O)N1CCN(Cc2cccc(Cl)c2Cl)CC1 [Example 180] | +++ (+++ = 91-100) | < 1500 | – | – |
| CCOc1cccc(-c2ccc(C[C@H](N)C(=O)N3CCN(Cc4cccc(Cl)c4Cl)CC3)cc2)c1 [Example 308] | – | < 1500 | 91 to 100 | – |
| CCCCCCCN1CCCN(C(=O)[C@@H](N)Cc2ccc(OCc3ccccc3)cc2)CC1 [Example 46] | – | > 3000 | 35 to 70 | – |
| COc1cccc(CCOc2ccc(C[C@H](N)C(=O)N3CCN(Cc4cccc(Cl)c4Cl)CC3)cc2)c1 [Example 243] | – | < 1500 | 91 to 100 | – |
| N[C@@H](Cc1ccc(-c2c(Cl)cccc2Cl)cc1)C(=O)N1CCN(Cc2cccc(Cl)c2Cl)CC1 [Example 324] | – | 1500 to 3000 | 91 to 100 | – |
| N[C@@H](Cc1ccc(OCc2ccccc2)cc1)C(=O)N1CCN(Cc2cccc(OCc3ccccc3)c2)CC1 [Example 85] | – | < 1500 | 91 to 100 | – |
| N[C@@H](Cc1ccc(OCc2ccccc2)cc1)C(=O)N1CCCN(CCCc2ccccc2)CC1 [Example 42] | – | > 3000 | 71 to 90 | – |
| COc1cc(CN2CCCN(C(=O)[C@@H](N)Cc3ccc(OCc4ccccc4)cc3)CC2)ccc1OCc1ccc([N+](=O)[O-])cc1 [Example 15] | – | 1500 to 3000 | 91 to 100 | – |
| CC(C)c1ccc(COc2ccc(C[C@H](N)C(=O)N3CCN(Cc4cccc(Cl)c4Cl)CC3)cc2)cc1 [Example 195] | +++ (+++ = 91-100) | < 1500 | – | – |
| N[C@@H](Cc1ccc(OCCCc2ccccc2)cc1)C(=O)N1CCN(Cc2cccc(Cl)c2Cl)CC1 [Example 261] | +++ (+++ = 91-100) | < 1500 | – | – |
| CC1CCC(N2CCCN(C(=O)[C@@H](N)Cc3ccc(OCc4ccccc4)cc3)CC2)CC1 (some centres unmarked) [Example 74] | – | > 3000 | 35 to 70 | – |
| N[C@@H](Cc1ccc(-c2cccc(Cl)c2)cc1)C(=O)N1CCN(Cc2cccc(Cl)c2Cl)CC1 [Example 301] | – | < 1500 | 91 to 100 | – |
| CCOc1ccc(CN2CCN(C(=O)[C@@H](N)Cc3ccc(OCc4ccccc4)cc3)CC2)c(OCC)c1C [Example 104] | – | 1500 to 3000 | 91 to 100 | – |
| N[C@@H](Cc1ccc(OCc2ccccc2)cc1)C(=O)N1CCN(Cc2ccc(Br)cc2)CC1 [Example 129] | – | > 3000 | 35 to 70 | – |
| COc1ccccc1-c1ccc(C[C@H](N)C(=O)N2CCN(Cc3cccc(Cl)c3Cl)CC2)cc1 [Example 326] | – | 1500 to 3000 | 71 to 90 | – |
| Cc1ccc(C)c(CN2CCCN(C(=O)[C@@H](N)Cc3ccc(OCc4ccccc4)cc3)CC2)c1 [Example 36] | – | > 3000 | 71 to 90 | – |
| N[C@@H](Cc1ccc(-c2ccccc2)cc1)C(=O)N1CCN(Cc2cccc(Cl)c2Cl)CC1 [Example 289] | – | < 1500 | – | – |
| N[C@@H](Cc1ccc(OCc2c(F)cccc2Cl)cc1)C(=O)N1CCN(Cc2cccc(Cl)c2Cl)CC1 [Example 222] | +++ (+++ = 91-100) | 1500 to 3000 | – | – |

| Structure (SMILES) | Displacement Rate (%) (at 10 μM) [1] | IC50 [nM] | inhibition at 10 µM [1] [%] | inhibition at 10 µM [%] |
| --- | --- | --- | --- | --- |
| N[C@@H](Cc1ccc(OCc2ccccc2)cc1)C(=O)N1CCCN(Cc2ccc(Oc3ccccc3)cc2)CC1 [Example 33] | – | 1500 to 3000 | 71 to 90 | – |
| CCc1ccc(-c2ccc(C[C@H](N)C(=O)N3CCN(Cc4cccc(Cl)c4Cl)CC3)cc2)cc1 [Example 291] | – | < 1500 | 91 to 100 | – |
| N[C@@H](Cc1ccc(OCc2ccccc2)cc1)C(=O)N1CCN(Cc2ccc([N+](=O)[O-])cc2)CC1 [Example 149] | – | > 3000 | 35 to 70 | – |
| N[C@@H](Cc1ccc(OCc2ccccc2)cc1)C(=O)N1CCCN(Cc2ccc(/C=C/c3ccccc3)cc2)CC1 [Example 11] | – | < 1500 | 91 to 100 | – |
| O=C([C@H](Cc1ccc(OCc2ccccc2)cc1)NCCN1CCOCC1)N1CCN(Cc2cccc(Cl)c2Cl)CC1 [Example 172] | – | 1500 to 3000 | 71 to 90 | – |
| N[C@@H](Cc1ccc(-c2cccc(Cl)c2Cl)cc1)C(=O)N1CCN(Cc2cccc(Cl)c2Cl)CC1 [Example 299] | – | < 1500 | 91 to 100 | – |
| N[C@@H](Cc1ccc(-c2ccc(F)c(Cl)c2)cc1)C(=O)N1CCN(Cc2cccc(Cl)c2Cl)CC1 [Example 306] | – | < 1500 | 91 to 100 | – |
| CN(CCCOc1ccc(C[C@H](N)C(=O)N2CCN(Cc3cccc(Cl)c3Cl)CC2)cc1)Cc1ccccc1 [Example 287] | + (+ = 35-70) | > 3000 | – | – |
| N[C@@H](Cc1ccc(OCc2ccccc2)cc1)C(=O)N1CCCN(C2CCc3ccccc3C2)CC1 (some centres unmarked) [Example 30] | – | > 3000 | – | 71 to 90 |
| N[C@@H](Cc1ccc(OCc2ccccc2Br)cc1)C(=O)N1CCN(Cc2cccc(Cl)c2Cl)CC1 [Example 179] | +++ (+++ = 91-100) | < 1500 | – | – |
| Cc1ccc(COc2ccc(C[C@H](N)C(=O)N3CCN(Cc4cccc(Cl)c4Cl)CC3)cc2)cc1 [Example 192] | +++ (+++ = 91-100) | < 1500 | – | – |
| N[C@@H](Cc1ccc(OCc2ccccc2)cc1)C(=O)N1CCN(Cc2ccc(C(F)(F)F)cc2)CC1 [Example 138] | – | > 3000 | 35 to 70 | – |
| N[C@@H](Cc1ccc(OCc2ccccc2)cc1)C(=O)N1CCN(C2CCN(CCc3ccccc3)CC2)CC1 [Example 139] | – | 1500 to 3000 | 35 to 70 | – |
| CCOc1ccccc1CN1CCCN(C(=O)[C@@H](N)Cc2ccc(OCc3ccccc3)cc2)CC1 [Example 50] | – | > 3000 | 35 to 70 | – |
| N[C@@H](Cc1ccc(OCc2ccccc2Cl)cc1)C(=O)N1CCN(Cc2cccc(Cl)c2Cl)CC1 [Example 210] | +++ (+++ = 91-100) | 1500 to 3000 | – | – |
| N[C@@H](Cc1ccc(OCc2ccccc2)cc1)C(=O)N1CCCN(Cc2ccc3ccccc3c2)CC1 [Example 51] | – | > 3000 | 35 to 70 | – |
| N[C@@H](Cc1ccc(OCc2ccccc2)cc1)C(=O)N1CCCN(C2CCN(Cc3ccccc3)CC2)CC1 [Example 73] | – | > 3000 | 35 to 70 | – |
| N[C@@H](Cc1ccc(OCc2ccccc2)cc1)C(=O)N1CCN(Cc2ccc(-c3ccc(Cl)cc3)o2)CC1 [Example 81] | – | < 1500 | 91 to 100 | – |
| COc1ccc(COc2ccc(C[C@H](N)C(=O)N3CCN(Cc4cccc(Cl)c4Cl)CC3)cc2)cc1OC [Example 234] | + (+ = 35-70) | > 3000 | – | – |
| CC(=O)c1cccc(-c2ccc(C[C@H](N)C(=O)N3CCN(Cc4cccc(Cl)c4Cl)CC3)cc2)c1 [Example 328] | – | 1500 to 3000 | 71 to 90 | – |
| N[C@@H](Cc1ccc(OCc2ccccc2)cc1)C(=O)N1CCCN(CC(c2ccccc2)c2ccccc2)CC1 [Example 23] | – | > 3000 | 91 to 100 | – |
| N[C@@H](Cc1ccc(OCc2ccccc2)cc1)C(=O)N1CCCN(Cc2cnc3ccccc3c2)CC1 [Example 62] | – | > 3000 | 35 to 70 | – |
| N[C@@H](Cc1ccc(OCc2ccccc2)cc1)C(=O)N1CCN(Cc2cccc(Oc3cc(Cl)cc(Cl)c3)c2)CC1 [Example 86] | – | < 1500 | 91 to 100 | – |
| N[C@@H](Cc1ccc(OCCc2cccc([N+](=O)[O-])c2)cc1)C(=O)N1CCN(Cc2cccc(Cl)c2Cl)CC1 [Example 257] | +++ (+++ = 91-100) | 1500 to 3000 | – | – |
| N[C@@H](Cc1ccc(OCc2ccccc2)cc1)C(=O)N1CCN(Cc2cccc(F)c2F)CC1 [Example 120] | – | > 3000 | 71 to 90 | – |

From US6916812B2, “Alpha-aminoamide derivatives as melanocortin agonists” (Bristol-Myers Squibb Company, priority 2001, dated 2005)
